Measurements published in patent US20090247611A1, “METHOD OF TREATING A CANCER WITH A SURVIVIN ANTISENSE OLIGONUCLEOTIDE AND PACLITAXEL” (priority 2004, published 2009).

What was measured:
HeLa cells = assay: cell based caspase 3 assay; settings: oligonucleotide 50 nM transfected 24 h, then 10 nM gemcitabine HCl or 1.25 nM paclitaxel for additional 48 h, compared to untreated control
Procedure: The assay is performed as described below.
HeLa cells are obtained from ATCC, Manassas, Va. and are cultured in DMEM with L-Glutamine medium (Gibco/Invitrogen) supplemented with 10% Fetal Bovine Serum (Hyclone), 0.1 mM Non-Essential Amino Acids, and 1 mM Sodium Pyruvate (Gibco/Invitrogen). For the caspase-3 assay, 96-well plates are plated with 1×10^4 cells/well. […] Caspases-3 activity is measured by reading proteolytically released fluor from the Ac-DEVD-AMC substrate using a plate-reading fluorometer with excitation at 360 nm and emission at 460 nm. After subtracting the plate background, the relative fluorescence units (RFU) are compared to untreated control and expressed as percentage increase in caspase-3 activity.
To investigate whether down-regulation of Survivin expression sensitizes HeLa cells to chemotherapy, combination treatment with Compound I and either gemcitabine HCl, doxorubicin HCl, or paclitaxel is evaluated. […] At the end of the incubation period, casapse-3 activity is measured. […] Data are expressed as percentage caspase-3 activity compared to untreated control.

[1] = tested on: U-87 MG human glioblastoma; assay: human xenograft tumor model, tumor growth delay; type: in vivo; settings: U-87 MG s.c. xenograft; oligonucleotide 50 mg/kg loading then 25 mg/kg i.v. every other day; gemcitabine HCl 2.5 mg/kg i.p. every third day x4
Procedure: The use of human xenograft tumor models has been described previously and is well known in the art. The following tumor types can be used to conduct the assay as described below. U-87 MG human glioblastoma are obtained from […] et al., Neoplasia (2000) 2(3):242-50). For xenograft studies, just before implantation, animals are irradiated (450 TBI (total body irradiation)), and cells are mixed in matrigel (1:1). […] All subsequent intravenous doses (25 mg/kg) of Compound I or MM control oligonucleotide are administered every other day. The treatment with sub-optimal doses of gemcitabine HCl, doxorubicin HCl, or paclitaxel is initiated one day following the loading dose. Gemcitabine HCl is administered intraperitoneally at 2.5 mg/kg every third day for a total of four doses. Paclitaxel is administered intravenously at 1 mg/kg every fourth day for a total of four doses. Bi-dimensional measurements are performed twice per week, and tumor volumes are calculated based on the following formula: […] Tumor volume data are transformed to a log scale to equalize variance across time and treatment groups. The data are analyzed using a two-way analysis of variance by time and treatment using SAS PROC MIXED software (SAS Institute, Inc., Cary, N.C.). The preferred correlation model for the repeated measures is AR (Auto Regressive of order 1). Treatment groups are compared at each time point. The data are plotted as means and standard errors for each treatment group versus time. The presence of synergy in combination therapies is assessed on the tumor growth delay (TGD) scale. The time to reach a specified tumor size (1500 or 2000 or 2500 mg in this study) is determined for each animal. […] Maximum likelihood analysis assuming a Weibull distribution is used to calculate mean times and standard errors for each treatment group. Tumor growth delay is the difference in mean times between each of the treated groups and the control group.

## CC(=O)O[C@H]1C(=O)[C@@]2(C)[C@H]([C@H](OC(=O)c3ccccc3)[C@]3(O)C[C@H](OC(=O)[C@H](O)[C@@H](NC(=O)c4ccccc4)c4ccccc4)C(C)=C1C3(C)C)[C@]1(OC(C)=O)CO[C@@H]1C[C@@H]2O [Paclitaxel, 5β, 20-Epoxy-1,2α,4,7β,10β,13α-hexahydroxytax-11-en-9-one 4,10-diacetate 2-benzoate 13-ester with (2R,3 S)—N-benzoyl-3-phenylisoserine]
HeLa cells
  Mean (% Caspase-3 Activity): 12.77%

## Cl.Nc1ccn([C@@H]2O[C@H](CO)[C@@H](O)C2(F)F)c(=O)n1 (single isomer, unassigned) [Gemcitabine HCl, 2′-deoxy-2′,2′-difluorocytidine monohydrochloride (⊖-isomer)]
HeLa cells
  Mean (% Caspase-3 Activity): 24.33%
[1]
  Tumor Growth Delay at 1500 mg, Mean ± S.E.M.: 0.3 ± 1.1 days
  Tumor Growth Delay at 2000 mg, Mean ± S.E.M.: 0.3 ± 1.2 days
  Tumor Growth Delay at 2500 mg, Mean ± S.E.M.: 0.6 ± 1 days
